This note sets out measurements from patent publication US11944623B2, “Modulators of Kv3 channels to treat pain” (Autifony Therapeutics Limited, priority 2015, dated 2024).

For experiment [1], the target named is T1, human cloned Kv3.4 channels (Homo sapiens, UniProt Q03721).
T1 construct: expressed in transfected cells
T1 sequence (Q03721 1-635): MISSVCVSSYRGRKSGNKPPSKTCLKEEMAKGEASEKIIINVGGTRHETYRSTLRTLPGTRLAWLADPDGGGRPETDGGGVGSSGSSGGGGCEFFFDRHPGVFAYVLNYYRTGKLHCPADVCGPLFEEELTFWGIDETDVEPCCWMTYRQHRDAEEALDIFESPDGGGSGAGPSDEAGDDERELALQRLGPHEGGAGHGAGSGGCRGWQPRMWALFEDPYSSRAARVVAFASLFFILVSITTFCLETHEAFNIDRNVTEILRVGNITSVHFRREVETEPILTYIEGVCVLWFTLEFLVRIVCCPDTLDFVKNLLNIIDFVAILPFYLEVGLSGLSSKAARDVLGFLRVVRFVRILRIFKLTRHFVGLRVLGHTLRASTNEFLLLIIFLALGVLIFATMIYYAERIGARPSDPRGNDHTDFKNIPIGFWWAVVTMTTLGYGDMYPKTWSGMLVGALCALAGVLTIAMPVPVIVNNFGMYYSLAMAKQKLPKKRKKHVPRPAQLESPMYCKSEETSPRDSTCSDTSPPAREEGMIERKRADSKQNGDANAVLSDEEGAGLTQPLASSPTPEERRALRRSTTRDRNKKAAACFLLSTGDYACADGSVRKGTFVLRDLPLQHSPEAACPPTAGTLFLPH
The experiment in a line: Kv3.4 Assay 1 (QPatch HT, HEK293). Type of experiment: cell-based. To be noted: 10 µM concentration (N=2). How it is done:
The effect of compounds on human cloned Kv3.4 channels expressed stably in a HEK293 call line was evaluated at room temperature using the QPatch HT® (Sophion Bioscience A/S, Denmark), an automatic parallel patch clamp system. Compounds were evaluated at 10 μM in three cells. The duration of exposure to each test article concentration was 5 minutes.
In preparation for a recording session, intracellular solution was loaded into the intracellular compartments of the QPlate and cell suspension was pipetted into the extracellular compartments. After establishment of a whole-cell configuration, membrane currents were recorded using up to 48 parallel patch clamp amplifiers in the QPatch HT® system. The current records were sampled at 2000 Hz and low-pass Bessel filtered at 400 Hz.
Valid whole-cell recordings met the following criteria: • 1. Seal resistance (Rseal) ≥200 MΩ. • 2. Leak current 25% channel current.

Experiment [2] deals with T2, hKv3.4 channels (Homo sapiens, UniProt Q03721).
T2 construct: expressed in transfected cells; host or cells: Xenopus laevis oocytes, microinjected in vitro transcribed mRNA
T2 sequence (Q03721 1-635): T1 sequence (Q03721 1-635)
Description: Kv3.4 Assay 3 (two-electrode voltage clamp, Xenopus oocytes). Type of experiment: cell-based. Also on record: dose or concentration left out as unconfirmed. How it is done: hKv3.4 channels were heterologously expressed in Xenopus ooctyes following microinjection of in vitro transcribed mRNA (mMessage mMachine kit, Ambion, Austin, TX). Whole-oocyte currents were recorded 1-4 day post-microinjection at room temperature (21-23° C.) under two-electrode voltage-clamp conditions (OC-725C, Warner, Hamden, CT). ND-96 and ND-96 plus the test compound were delivered using a gravity-driven perfusion system. Whole-oocyte currents mediated by hKv3.4 channels were elicited by 400 ms depolarizing steps from −40 to 60 mV in 10 mV increments from a holding potential of −100 mV under in the absence and then presence of test compound. Voltage-conductance curves were constructed from the peak currents evoked at each voltage step, and the data were fitted to a Boltzmann equation. Data acquisition, leak subtraction and initial analyses were performed using pClamp 9.2/10.3 (Molecular Devices, Sunnyvale, CA). Macroscopic currents were low-pass filtered at 0.5-1 kHz and digitized at 1-2 kHz. Leak and capacitive currents were subtracted on line using a p/4 subtraction strategy. Xenopus laevis frogs were handled according IACUC approved protocols and regulations.
On the technique in general: In two-electrode clamp one electrode senses voltage and the other passes current.

For the molecule `CC[C@@]1(C)NC(=O)N(c2cnc(Oc3ccc(C)c(OC(F)(F)F)c3)nc2)C1=O` [Compound 2, (5R)-5-ethyl-5-methyl-3-[2-({4-methyl-3-[(trifluoromethyl)oxy]phenyl}oxy)-5-pyrimidinyl]-2,4-imidazolidinedione], in experiment [1], the “potentiation of the observed Kv3.4 current” value is recorded as “did not potentiate”. Regarding `Cc1ccc(Oc2ncc(N3C(=O)NC(C)(C)C3=O)cn2)c2c1OCC21CC1` [Compound 1, 5,5-dimethyl-3-[2-(7-methylspiro[2H-benzofuran-3,1′-cyclopropane]-4-yl)oxypyrimidin-5-yl]imidazolidine-2,4-dione], in experiment [2], the “effect on Kv3.4 mediated channel currents” value is “No significant effect” and the “shift of the voltage-conductance curve for hK3.4” value is on record as “did not significantly shift”.
